Reference: patent US5827836A, “Retinoid glycerol phospholipid conjugates” (Clarion Pharmaceuticals Inc., priority 1996, dated 1998)
Where two headings read alike, the source gives them in different places.

Key:
[1] = tested on: human tumor cell line HL-60; experiment: HL-60 cell proliferation (in vitro HL-60 cell inhibition assay, SRB); format: cell-based; settings: particularly against leukemia
Procedure: (§1) Use of the HL-60 cell line in evaluating the anti-tumor activity of retinoids is reported in the literature, for example, see Janick-Buckner, D. et al.,FASEB J. 5:320-325; 1991
(§2) 1. Human tumor cell line HL-60 (ATCC CCL 240), obtainable from the American Type Culture Collection (ATCC), a promyelocytic leukemia cell line.
(§3) 2. Culture media: Roswell Park Memorial Institute-1640 (RPMI-1640) plus 10% Fetal Bovine Serum (FBS).
(§4) 3. Standard protocol for culturing cell lines: in T-75 or T-150 flasks; 37° C.; 95% air, 5% CO2; 100% humidity.
(§5) a. The HL 60 cell line is passaged by removing approximately 75% of the media and cell mixture and adding an equal amount of fresh media once or twice a week.
b. […]
j. Read absorbance at 562 nm using a standard 96-well microtiter plate reader. Absorbance readings are linear with dye concentrations below 1.8 absorbance units. To reduce absorbance, decrease wavelength at which measurements are taken;
single point reading; the higher the absorbance, the higher the cell number; […]
initial control cell number (ICCN)-no test compound present in culture medium, end point determined at the time of treatment;
final control cell number (FCCN)-no test compound present in culture medium, end point determined at 72 hours after treatment;
final cell number (FCN)-test compound present in culture medium, end point determined at 72 hours after treatment; […]

[2] = tested on: human tumor cell line HL-60; experiment: HL-60 cell viability (trypan blue exclusion); format: cell-based; settings: for cell viability (in words): HL-60, compared to retinoic acid; for viability at 10 µM / viability at 30 µM / viability at 100 µM: Homo sapiens
Procedure: as §1, §2, §3, §4, §5
b. All procedures are performed aseptically in a Class II biological safety cabinet using standard BL-2 containment procedures. At approximately monthly intervals, fresh cells are thawed from liquid nitrogen storage in order to prevent genetic drift in stock cell lines.
a. after cell passage, count cells with a hemacytometer;
b. adjust concentration to approximately 20,000 cells per 100 μL;
C. pipette 100 μL cell suspension per well of a standard 96-well microtiter plate;
d. add test compound dissolved in phosphate buffered saline (PBS), or in DMSO for the comparative compound, retinoic acid, for final concentration levels ranging from 0 to 100 μM;
e. adjust volume to 200 μL/well by adding RPMI-1640;; and
f. incubate 72 hours under standard culture conditions and determine end points.
6. End Point 2: Cell Viability:
a. Add 100 μL/well of 0.5% (w/v) trypan blue in PBS.
b. Using a hemacytometer, determine the percent viable cells by calculating the ratio of cells that exclude trypan blue to the total number of cells.

[3] = tested on: RAW 264.7 murine monocyte/macrophage line; experiment: Anti-inflammatory activity by inhibition of macrophage chemiluminescence (respiratory burst, PMA-stimulated, luminol); format: cell-based; settings: for minimal effective concentration: PMA-stimulated RAW 264.7, read-out: concentration at which marked inhibition of luminescence is seen
From the text: Assay for Anti-inflammatory Activity by Inhibition of Macrophage Chemiluminescence
The RAW 264.7 cell line (available from the ATCC under accession no. TIB 71) is a murine monocyte/macrophage line the cells of which show many of the differentiative functions of a macrophage. Like macrophages, the cells are capable of phagocytosis and undergo an oxidative burst (increased oxygen consumption) and production of oxygen radicals (e.g., superoxide) in response to appropriate signals. Agents that inhibit the activation of these cells in vitro, so as to inhibit the respiratory burst and corresponding production of oxygen radicals associated with the activation, are therefore inhibitors of macrophage activation and critical steps in inflammatory processes. These agents are likely, then to be anti-inflammatories.
The respiratory burst and corresponding production of oxygen radicals that accompany macrophage activation can be measured in a variety of ways, including chemiluminescence based on the reaction of the oxygen radicals with luminol added to the culture medium (see M. A. Trush et al, 1978, "The Generation of Chemiluminescence by Phagocytic Cells." Methods in Enzymology 57: 462-494). Indeed, chemiluminescence generated from luminol in the culture medium of macrophage cell lines is recognized in the art as a marker of macrophage activation.
Cell line: RAW 264.7 (ATCC TIB 71);
1. Culture medium: DMEM with 5% FBS (attachment dependent);
2. Standard protocol for culturing cell lines: in T-75 or T-150 flasks; 37° C.; 95% air, 5% CO2; 100% humidity;
3. Cell lines are passaged when approximately 80% confluent; with trypsin (1 mg/mL) and EDTA ([…] in Ca-Mg free Hank's balanced salt solution); at a 1:4 to 1:5 split;
4. Trypsinize the cells and count with a hemacytometer;
5. Adjust concentration of cells to approximately 1,000,000 cells per mL;
6. Suspend cells in DMEM lacking phenol red and without FBS;
7. Pipette 1 mL into a standard luminometer cuvet (12×75), commercially obtainable from Analytical Luminescence Laboratories, San Diego;
8. Add luminol to final concentration of 1 μM;
9. Add test compound (0, 1, 3, 10, 30 μM);
10. Add 100 nanograms of phorbol myristate acetate (PMA);
11. Wait 1 minute and read photo counts (i.e., luminescence) on a Monolight 2010 luminometer available from Analytical Luminescence Laboratories;
The results are represented in Table 2, which illustrates the marked inhibition of luminescence by the compounds tested (CPR 2003 and CPR 2004) at concentrations above 3 μM. Results are calculated as percent of control (no test compound present).

[4] = tested on: PAM-212 murine keratinocyte cell line; experiment: Anti-psoriatic activity by inhibition of keratinocyte proliferation (PAM-212, SRB); format: cell-based, murine (BALB/c mice); settings: for minimal effective concentration: Mus musculus, PAM212, PAM-212, 72 hours, FIG. 2, read-out: concentration at which marked inhibition of cell growth is seen; for inhibition of keratinocyte proliferation (in words): in vitro
Procedure: Assay for Anti-psoriatic Activity by Inhibition of Keratinocyte Proliferation:
1. Cell line: PAM-212 murine keratinocyte cell line isolated and cultivated from newborn BALB/c mice (see S. H. Yuspa et al., Cancer Research, 40, 4694-4703, December, 1980) that appears to retain many characteristics of normal keratinocytes.
2. Culture medium: 1:1 DMEM and Ham's F-12 with 10% FBS.
3. Standard protocol for culturing cell lines; in T-75 or T-150 flasks; 37° C.; 95% air, 5% CO2; 100% humidity. Cell line PAM-212 is passaged when approximately 80% confluent; with trypsin (1 mg/mL) and EDTA (1 mM EDTA in Ca-Mg free Hank's balanced salt solution); at a 1:4 to 1:5 split.
a. All procedures are performed aseptically in a Class II biological safety cabinet using standard BL-2 containment procedures. At approximately monthly intervals, fresh cells are thawed from liquid nitrogen storage in order to prevent genetic drift in stock cell lines.
After cell passage, count cells with a hemacytometer;
a. Adjust concentration to approximately 1,000 cells per 100 μL;
b. Pipette 100 μL cell suspension per well of a standard 96-well microtiter plate;
c. Preincubate 24 hours to allow cells to attach;
d. Add test compound dispersed in phosphate buffered saline (PBS), or in DMSO for the comparative compound, retinoic acid, to achieve final concentration levels ranging from 0 to 100 μM;
e. Adjust volume to 200 μL/well by adding DMEM/F12; and
f. Incubate 72 hours under standard culture conditions and determine end points.
Remove media and add 100 μL/well of cold (4° C.) 10% (w/v) trichloroacetic acid (TCA) in water;
a. After 1 hour at 4° C., remove TCA and rinse cells 5 times with tap water;
c. Add 50 μL/well of 0.4% (w/v) sulforhodamine B (SRB) in 1% (v/v) acetic acid in water;
d. After 30 minutes at room temperature, rinse cells 4 times with 1% (v/v) acetic acid in water to remove residual stain;
f. Dissolve stain by adding 100 μL/well of unbuffered Tris base, pH 10.5;
g. Read absorbance at 562 nm using a standard 96-well microtiter plate reader. Absorbance readings are linear with dye concentrations below 1.8 absorbance units. To reduce absorbance, decrease wavelength at which measurements are taken.
single point reading; the higher the absorbance, the higher the cell number;
a. background-no cell and no test compound present in culture medium;
b. control-no test compound present in culture medium;
c. initial control cell number (ICCN)-no test compound present in culture medium, end point determined at the time of treatment;
d. final control cell number (FCCN)-no test compound present in culture medium, end point determined at 72 hours after treatment;
e. final cell number (FCN)-test compound present in culture medium, end point determined at 72 hours after treatment;
ICCN=A(control, zero hour)-A(background) […]

[5] = R. Andreesen, Prog. Biochem. Pharmacol., 22, 118-131; cited from earlier work
[6] = Liposome formation in PBS; format: physicochemical; settings: sonication
From the text: Solutions of the subject compounds of Formula (I) in PBS (phisphate-buffered saline) have characteristics indicative of the presence of liposomes. These preparations require sonication in order to form uniform, cloudy suspensions. The requirement for sonication and the cloudy appearance of the suspensions are some known properties of liposomal preparations. Additionally, foam generation, which is associated with micellar suspensions, is not a property of these preparations.

[7] = RAW264.7, PMA-stimulated mouse macrophages, 1 μM, read-out: % Inhibition of respiratory burst
[8] = RAW264.7, PMA-stimulated mouse macrophages, 3 μM, read-out: % Inhibition of respiratory burst
[9] = RAW264.7, PMA-stimulated mouse macrophages, 10 μM, read-out: % Inhibition of respiratory burst
[10] = RAW264.7, PMA-stimulated mouse macrophages, 30 μM, read-out: % Inhibition of respiratory burst
[11] = Mus musculus, RAW264.7, read-out: % Inhibition of respiratory burst

Compound | anti-tumor or anti-cancer activity (in words) [1] | cell viability (in words) [2] | viability at 10 µM ([2]; HL-60, 72 h) [%] | viability at 30 µM ([2]; HL-60, 72 h) [%] | viability at 100 µM ([2]; HL-60, 72 h) [%] | reduction of macrophage activation (in words) [3] | minimal effective concentration ([3]; Mus musculus, RAW264.7) [µM] | inhibition at 1 µM [3, 7] [%] | inhibition at 3 µM [3, 8] [%] | inhibition at 10 µM [3, 9] [%] | inhibition at 30 µM [3, 10] [%] | minimal effective concentration [4] [µM] | inhibition of keratinocyte proliferation (in words) [4] | other results
CCCCCCCCCCCCCCCCCCOCC(COP(=O)([O-])OCC[N+](C)(C)C)OC(=O)/C=C(C)/C=C/C=C(C)/C=C/C1=C(C)CCCC1(C)C (stereo not drawn) [CPR 2003, 1-O-n-Octadecyl-2-(all-trans-retinoyl)-glycero-3-phosphocholine] | marked anti-tumor or anti-cancer activity | relatively high cell viability | 97 | 93 | 97 | markedly reduce macrophage activation | > 3 | 19 | 40 | 81 | 99 | > 1 | markedly inhibit proliferation of these cells in vitro | 
CCCCCCCCCCCCCCCCCCOCC(COC(=O)/C=C(C)/C=C/C=C(C)/C=C/C1=C(C)CCCC1(C)C)OP(=O)([O-])OCC[N+](C)(C)C (stereo not drawn) [CPR 2004, 1-O-n-Octadecyl-3-(all-trans-retinoyl)-glycero-2-phosphocholine] | marked anti-tumor or anti-cancer activity | relatively high cell viability | 92 | 94 | 59 | markedly reduce macrophage activation | > 3 | 14 | 55 | 93 | 99 | > 10 | markedly inhibit proliferation of these cells in vitro | 
CCCCCCCCCCCCCCCCCCOC[C@H](COP(=O)([O-])OCC[N+](C)(C)C)OC [ET 18-OCH3, 1-O-octadecyl-2-O-methyl-sn-glycero-3-phosphocholine] |  |  |  |  |  |  |  |  |  |  |  |  |  | anti-tumor activity (in words) [5]: markedly potent anti-tumor activity
CC1=C(/C=C/C(C)=C/C=C/C(C)=C/C(=O)O)C(C)(C)CCC1 [Retinoic Acid, retinoic acid, reference compound] |  |  |  |  |  |  |  |  |  |  |  |  |  | viability at 10 µM ([2]; HL-60, 10 μM, 72 hours, read-out: % Viability): 87%; viability at 30 µM ([2]; HL-60, 30 μM, 72 hours, read-out: % Viability): 70%; viability at 100 µM ([2]; HL-60, 100 μM, 72 hours, read-out: % Viability): 0%; liposome formation (in words) [6]: unlike retinoic acid, the subject compounds are capable of forming liposomes; inhibition at 1 µM [3, 11]: 2%; inhibition at 3 µM [3, 11]: 6%; inhibition at 10 µM [3, 11]: 3%; inhibition at 30 µM [3, 11]: 6%
